According to ChEMBL document CHEMBL1201862, “PubChem BioAssay data set” (2004):
The source made the active and inactive calls.

What was measured:
[1] = biological target: T1, Replicative DNA helicase DnaB (Mycobacterium tuberculosis, UniProt P9WMR3); assay: DnaB intein splicing inhibitors, dose response, biochemical, cell-free fluorescence (AID 449749); format: functional
T1 sequence (P9WMR3 whole entry): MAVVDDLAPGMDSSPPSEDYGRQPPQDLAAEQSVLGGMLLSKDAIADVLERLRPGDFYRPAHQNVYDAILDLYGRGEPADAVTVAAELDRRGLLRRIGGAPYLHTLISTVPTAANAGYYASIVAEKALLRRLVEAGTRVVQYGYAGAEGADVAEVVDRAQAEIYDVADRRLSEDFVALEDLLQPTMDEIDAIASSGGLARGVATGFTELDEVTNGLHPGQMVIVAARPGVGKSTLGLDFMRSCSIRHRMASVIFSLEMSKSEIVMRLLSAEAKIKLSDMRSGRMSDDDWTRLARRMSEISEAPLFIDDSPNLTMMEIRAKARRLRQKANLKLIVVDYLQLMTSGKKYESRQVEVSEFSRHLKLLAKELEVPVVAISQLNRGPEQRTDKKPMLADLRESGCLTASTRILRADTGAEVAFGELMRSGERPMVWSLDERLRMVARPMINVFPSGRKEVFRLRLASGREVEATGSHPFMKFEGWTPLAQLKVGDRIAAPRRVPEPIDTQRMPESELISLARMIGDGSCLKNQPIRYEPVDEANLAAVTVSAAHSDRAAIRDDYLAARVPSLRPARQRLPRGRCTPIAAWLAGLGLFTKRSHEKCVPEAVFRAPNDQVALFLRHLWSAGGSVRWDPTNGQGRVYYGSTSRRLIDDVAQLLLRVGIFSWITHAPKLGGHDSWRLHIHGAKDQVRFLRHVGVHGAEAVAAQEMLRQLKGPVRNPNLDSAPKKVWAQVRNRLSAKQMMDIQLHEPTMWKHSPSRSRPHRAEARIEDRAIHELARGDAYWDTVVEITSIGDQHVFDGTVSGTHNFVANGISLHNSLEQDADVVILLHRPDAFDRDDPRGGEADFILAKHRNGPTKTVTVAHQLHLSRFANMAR

[2] = biological target: T2, Protein RecA (Mycobacterium tuberculosis, UniProt P9WHJ3); assay: Fluorescence Cell-Free Homogeneous Dose Retest to Identify Inhibitors of RecA-Intein Splicing Activity. [Related pubchem assays (depositor defined):AID2097, AID2223, AID489010, AID492950]; format: functional
T2 sequence (P9WHJ3 whole entry): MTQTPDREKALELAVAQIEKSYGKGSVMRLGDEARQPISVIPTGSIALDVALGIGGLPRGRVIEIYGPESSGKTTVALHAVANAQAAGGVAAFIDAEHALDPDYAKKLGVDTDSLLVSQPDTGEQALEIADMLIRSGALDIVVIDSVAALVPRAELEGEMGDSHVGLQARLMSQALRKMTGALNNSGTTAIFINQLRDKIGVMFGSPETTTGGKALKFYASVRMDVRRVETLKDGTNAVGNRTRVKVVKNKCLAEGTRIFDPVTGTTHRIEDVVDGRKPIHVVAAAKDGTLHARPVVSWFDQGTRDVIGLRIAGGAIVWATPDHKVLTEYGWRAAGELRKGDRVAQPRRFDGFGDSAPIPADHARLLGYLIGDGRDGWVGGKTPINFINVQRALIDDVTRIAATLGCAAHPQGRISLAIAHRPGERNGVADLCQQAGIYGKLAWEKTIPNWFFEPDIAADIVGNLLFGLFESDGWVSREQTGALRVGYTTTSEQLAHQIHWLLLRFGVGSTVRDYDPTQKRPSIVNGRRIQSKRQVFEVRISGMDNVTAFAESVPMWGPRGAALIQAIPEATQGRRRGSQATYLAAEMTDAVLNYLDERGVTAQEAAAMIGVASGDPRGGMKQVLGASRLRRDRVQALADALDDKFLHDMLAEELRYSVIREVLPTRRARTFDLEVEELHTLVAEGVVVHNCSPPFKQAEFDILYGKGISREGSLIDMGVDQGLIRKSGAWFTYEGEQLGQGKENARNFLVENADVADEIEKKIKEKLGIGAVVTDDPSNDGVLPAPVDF

[3] = biological target: T3, Cytochrome P450 1A2 (Homo sapiens, UniProt P05177);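 also: PubChem cytochrome P450 panel assay, CYP1A2 panel member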
T3 sequence (P05177 whole entry): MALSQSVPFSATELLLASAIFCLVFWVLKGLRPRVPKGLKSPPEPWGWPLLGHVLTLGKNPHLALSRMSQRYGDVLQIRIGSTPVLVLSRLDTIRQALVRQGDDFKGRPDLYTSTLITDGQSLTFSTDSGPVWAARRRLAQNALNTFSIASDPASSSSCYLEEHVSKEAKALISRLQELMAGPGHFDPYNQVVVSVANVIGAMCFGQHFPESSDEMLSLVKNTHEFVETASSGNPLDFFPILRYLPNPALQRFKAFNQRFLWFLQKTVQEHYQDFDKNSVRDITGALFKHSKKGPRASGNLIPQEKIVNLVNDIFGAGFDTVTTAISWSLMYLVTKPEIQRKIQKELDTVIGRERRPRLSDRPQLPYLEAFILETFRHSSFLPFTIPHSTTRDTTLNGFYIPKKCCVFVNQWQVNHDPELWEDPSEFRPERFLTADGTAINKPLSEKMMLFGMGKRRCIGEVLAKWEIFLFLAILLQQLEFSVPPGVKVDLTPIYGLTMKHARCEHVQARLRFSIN

[4] = biological target: Cytochrome P450 2D6 (Homo sapiens, UniProt P10635);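 also: CYP2D6 member of a cytochrome P450 panel assay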
Sequence of Cytochrome P450 2D6 (P10635 whole entry): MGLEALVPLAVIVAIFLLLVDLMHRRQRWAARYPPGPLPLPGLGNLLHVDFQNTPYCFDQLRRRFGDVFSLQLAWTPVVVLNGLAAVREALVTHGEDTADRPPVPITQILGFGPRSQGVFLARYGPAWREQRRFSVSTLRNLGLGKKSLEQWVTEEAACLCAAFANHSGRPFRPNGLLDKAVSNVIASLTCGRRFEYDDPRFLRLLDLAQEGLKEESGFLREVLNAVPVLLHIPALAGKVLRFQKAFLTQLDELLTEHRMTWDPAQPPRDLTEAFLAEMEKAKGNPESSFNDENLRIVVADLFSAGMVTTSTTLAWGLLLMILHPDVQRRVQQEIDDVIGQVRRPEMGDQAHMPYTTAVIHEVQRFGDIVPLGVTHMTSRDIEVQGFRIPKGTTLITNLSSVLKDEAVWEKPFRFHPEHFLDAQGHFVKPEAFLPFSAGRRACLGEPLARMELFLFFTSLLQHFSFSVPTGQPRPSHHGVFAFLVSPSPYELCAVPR

[5] = biological target: Cytochrome P450 2C19 (Homo sapiens, UniProt P33261); assay: Cytochrome panel assay with activity outcomes. Panel member name: p450-cyp2c19 Compounds with AC50 equal or less than 10 uM are considered active; format: functional; conditions: read-out: AC50
Sequence of Cytochrome P450 2C19 (P33261 whole entry): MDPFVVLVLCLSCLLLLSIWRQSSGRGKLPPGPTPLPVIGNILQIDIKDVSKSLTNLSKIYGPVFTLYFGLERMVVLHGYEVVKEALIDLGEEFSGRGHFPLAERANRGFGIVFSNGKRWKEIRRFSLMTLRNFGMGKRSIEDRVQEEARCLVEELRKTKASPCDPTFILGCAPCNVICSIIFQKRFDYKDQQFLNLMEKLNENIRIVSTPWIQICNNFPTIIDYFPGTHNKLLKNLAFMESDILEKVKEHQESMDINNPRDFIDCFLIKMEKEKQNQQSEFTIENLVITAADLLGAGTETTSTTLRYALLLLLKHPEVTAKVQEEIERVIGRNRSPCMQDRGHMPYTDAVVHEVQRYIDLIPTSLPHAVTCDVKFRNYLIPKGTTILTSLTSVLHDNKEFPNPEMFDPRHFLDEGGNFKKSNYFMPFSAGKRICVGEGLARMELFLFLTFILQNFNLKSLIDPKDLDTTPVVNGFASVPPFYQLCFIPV

[6] = biological target: Cytochrome P450 3A4 (Homo sapiens, UniProt P08684);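 also: CYP3A4 tested as one member of a cytochrome P450 panel screen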
Sequence of Cytochrome P450 3A4 (P08684 whole entry): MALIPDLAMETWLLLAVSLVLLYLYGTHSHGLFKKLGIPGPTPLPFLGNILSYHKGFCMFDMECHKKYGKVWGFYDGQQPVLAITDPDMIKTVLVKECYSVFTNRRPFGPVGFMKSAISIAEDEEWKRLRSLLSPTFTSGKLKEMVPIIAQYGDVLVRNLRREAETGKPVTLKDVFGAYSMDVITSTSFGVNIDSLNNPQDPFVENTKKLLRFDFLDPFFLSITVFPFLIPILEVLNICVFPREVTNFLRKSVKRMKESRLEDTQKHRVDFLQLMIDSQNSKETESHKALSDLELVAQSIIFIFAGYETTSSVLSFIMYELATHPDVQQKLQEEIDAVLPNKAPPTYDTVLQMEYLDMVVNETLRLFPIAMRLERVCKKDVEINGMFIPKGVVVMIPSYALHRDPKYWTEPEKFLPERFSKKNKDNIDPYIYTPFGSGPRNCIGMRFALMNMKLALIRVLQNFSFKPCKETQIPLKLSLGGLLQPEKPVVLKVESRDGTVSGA

[7] = biological target: Cytochrome P450 2C9 (Homo sapiens, UniProt P11712)
Sequence of Cytochrome P450 2C9 (P11712 whole entry): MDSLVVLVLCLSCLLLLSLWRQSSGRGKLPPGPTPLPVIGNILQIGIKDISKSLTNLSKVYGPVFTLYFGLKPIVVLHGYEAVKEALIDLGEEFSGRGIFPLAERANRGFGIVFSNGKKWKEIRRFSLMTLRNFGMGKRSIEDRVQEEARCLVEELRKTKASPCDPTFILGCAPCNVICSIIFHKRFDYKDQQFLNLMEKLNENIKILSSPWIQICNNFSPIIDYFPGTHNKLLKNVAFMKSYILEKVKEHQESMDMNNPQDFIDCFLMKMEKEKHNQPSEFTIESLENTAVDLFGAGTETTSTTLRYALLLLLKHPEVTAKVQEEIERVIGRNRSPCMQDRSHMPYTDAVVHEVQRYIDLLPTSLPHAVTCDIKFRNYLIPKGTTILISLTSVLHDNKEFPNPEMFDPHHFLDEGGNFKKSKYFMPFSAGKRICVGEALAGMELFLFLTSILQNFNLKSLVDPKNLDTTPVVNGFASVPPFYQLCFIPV

[8] = Luminescence Cell-Based Dose Response HTS to Identify Activators of Luciferase Translation or Activity in H4 […] Cells. [Related pubchem assays: 1829 (Project Summary), 1814 (Primary HTS)]; format: functional
[9] = test system: H4; assay: Luminescence Cell-Based Dose Response HTS to Identify Activators of 5'UTR Stem-Loop Driven Prion Protein mRNA Translation in H4 Neuroglioblastoma Cells. [Related pubchem assays: 1829 (Project Summary), 1814 (Primary HTS)]; format: functional; conditions: Homo sapiens
[10] = test system: Streptococcus sp. 'group A'; assay: Streptococcus pyogenes SK(-)GAS viability under kanamycin – luminescence, BacTiterGlo, confirmation, counter-screen for streptokinase expression inhibitor project, dose response (AID 1900); format: functional, organism-based
[11] = test system: Streptococcus; assay: GAS UMAA2166 growth inhibition – luminescence, BacTiterGlo, counter-screen for streptokinase expression inhibitor project, dose response (AID 1915); format: functional, organism-based;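 also: potency for reduction of bacterial viability or growth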
[12] = NIH-3T3 fibroblast cytotoxicity, dose response, cytotoxicity control, cell-based, fluorescence, Alamar Blue, secondary assay (AID 2327); format: functional;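 also: NIH-3T3 mouse fibroblasts cultured with fluconazole at 8 µg/mL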

SMILES: O=C1CC/[N+](=C\c2ccccc2Cl)[N-]1
- AC50 [1]: 7.23 µM (active)
- EC50 [2]: 4.02 µM (active)

SMILES: CCCCSc1nc(C)cc(N=C(S)Nc2ccc(OC)cc2)n1
- AC50 [3]: 4.47 µM (inconclusive)

SMILES: CCCC(=O)Nc1c2c(nn1-c1ccc(C)cc1C)CSC2
- AC50 [4]: 28.2 µM (inconclusive)
- AC50 [3]: 12.6 µM (inconclusive)

SMILES: O=C(c1cnc(N2CCN(c3ncccn3)CC2)c2ccccc12)N1CCN(c2ccccn2)CC1
- AC50 [3]: 0.0251 µM (inconclusive)

SMILES: O=S(=O)(c1ccccc1)N1CCC2(CC1)CN(c1ccccn1)C2
- AC50 [5]: 10 µM (inconclusive)
- AC50 [4]: 20 µM (inconclusive)
- AC50 [6]: 12.6 µM (inconclusive)

SMILES: c1ccc(N2CCC3(CCNCC3)CC2)nc1
- AC50 [5]: 25.1 µM (inconclusive)
- AC50 [6]: 25.1 µM (inconclusive)
- AC50 [7]: 31.6 µM (inconclusive)

SMILES: COC(=O)[C@H](Cc1ccccc1)NC(=O)N1CCN(Cc2ccccc2)CC1
- AC50 [6]: 14.1 µM (inconclusive)
- AC50 [7]: 0.01 µM (inconclusive)

SMILES: Cc1cccc(Nc2ccccc2C(=O)OCC(=O)NCc2ccco2)c1C
- AC50 [7]: 11.2 µM (inconclusive)

SMILES: C[C@@H](C(=O)Nc1ccc2ccccc2c1)[C@@H]1C[C@@]1(C)[C@@H](NC(=O)Oc1ccc(F)cc1)c1ccccc1
- AC50 [7]: 0.251 µM (inconclusive)

SMILES: CCC(C)NC(=O)CCS(=O)(=O)c1ccc(Br)s1 (configuration not stated)
- AC50 [4]: 28.2 µM (inconclusive)
- AC50 [7]: 12.6 µM (inconclusive)

SMILES: CCc1ccc(OCC(=O)NC(=S)Nc2ccc(C)cc2C)c(Br)c1
- AC50 [3]: 4.47 µM (inconclusive)
- AC50 [6]: 31.6 µM (inconclusive)
- AC50 [7]: 0.631 µM (inconclusive)

SMILES: FC(F)(F)c1cc(-c2ccco2)nc(NCc2cccs2)n1
- AC50 [5]: 1.26 µM (inconclusive)
- AC50 [4]: 20 µM (inconclusive)

SMILES: Cc1ccc(-n2c(C)c(C)c3c(NCCCO)ncnc32)cc1
- EC50 [8]: 119 µM (active)
- EC50 [9]: > 120 µM (not active)

SMILES: COc1ccc(C2=Nc3c(c(=O)n(C)c(=O)n3C)C(C(F)(F)F)(C(F)(F)F)N2)cc1
- AC50 [3]: 11.2 µM (inconclusive)
- AC50 [6]: 14.1 µM (inconclusive)

SMILES: O=C(NCCOc1nc(N2CCOCC2)nc(N2CCOCC2)n1)Nc1ccccc1
- AC50 [6]: 22.4 µM (inconclusive)
- AC50 [7]: 15.8 µM (inconclusive)

SMILES: CC(=O)NC1N=C(C)N(c2ccccc2)C1=O (configuration not stated)
- AC50 [1]: 4.66 µM (active)
- EC50 [2]: 10.7 µM (active)

SMILES: COc1ccc(C2C(C#N)=C(N)N(Nc3ccccc3)C3=C2C(=O)CC(C)(C)C3)cc1C (configuration not stated)
- AC50 [3]: 39.8 µM (inconclusive)

SMILES: COC(=O)c1cc2c(ccn2-c2ccc(F)cc2)n1C(C)C
- AC50 [6]: 25.1 µM (inconclusive)
- AC50 [7]: 22.4 µM (inconclusive)

SMILES: c1ccc(Nc2ncnc3ccc(-c4ccc5c(c4)OCO5)cc23)cc1
- AC50 [7]: 1.58 µM (inconclusive)

SMILES: CN(C)c1ncc2nc(-c3ccc(F)cc3)c(=O)n(CCC#N)c2n1
- AC50 [4]: 0.501 µM (inconclusive)
- AC50 [3]: 1.26 µM (inconclusive)

SMILES: Cc1ccc(C)c(Nc2nc3nonc3nc2N2CCOCC2)c1
- AC50 [7]: 0.355 µM (inconclusive)

SMILES: CN1CCN(c2ncnc3ccc(-c4cccc(NS(C)(=O)=O)c4)cc23)CC1
- AC50 [3]: 25.1 µM (inconclusive)
- AC50 [6]: 12.6 µM (inconclusive)

SMILES: CN(C)C(=S)N=Nc1[nH]c2ccccc2c1O
- AC50 [1]: 10.7 µM (active)
- EC50 [2]: 6.07 µM (active)

SMILES: COc1cccc(-c2[nH]nc3c2C(c2ccsc2)C(C#N)=C(N)O3)c1 (configuration not stated)
- AC50 [1]: 2 µM (active)
- EC50 [2]: 0.52 µM (active)

SMILES: COc1cccc(NC(=O)NCCC2=CCCCC2)c1
- EC50 [8]: 51 µM (active)
- EC50 [9]: 0.324 µM (active)

SMILES: O=C(CSc1nnc(Cc2ccccc2)o1)Nc1cccc(F)c1
- AC50 [1]: 71.3 µM (active)
- EC50 [2]: 86.1 µM (active)

SMILES: O=C(NCCCN1CCCCCC1)[C@@H](c1ccccc1)C1CCCCC1
- AC50 [3]: 31.6 µM (inconclusive)

SMILES: Cc1nn2c(NCC(C)C)c3c(nc2c1-c1ccccc1)CCC3
- AC50 [6]: 10 µM (inconclusive)
- AC50 [7]: 0.708 µM (inconclusive)

SMILES: CS(=O)(=O)C1=NSC2=NC(=O)/C(=C\c3ccc(OC(=O)c4ccco4)cc3)C(=N)N21
- AC50 [1]: > 120 µM (inactive)
- EC50 [2]: 16 µM (active)

SMILES: CCOc1ccc(N2CC(C(=O)NCc3cccc(C)c3)CC2=O)cc1 (configuration not stated)
- AC50 [3]: 14.1 µM (inconclusive)

SMILES: CCCCNC(=O)C(=O)c1ccccc1NC(C)=O
- AC50 [5]: 22.4 µM (inconclusive)
- AC50 [3]: 39.8 µM (inconclusive)

SMILES: CC(C)On1c(SC(C)C)nc2ccccc2c1=O
- AC50 [5]: 28.2 µM (inconclusive)
- AC50 [7]: 31.6 µM (inconclusive)

SMILES: COc1ccc(S(=O)(=O)N(CC(=O)N2CCCC2)Cc2ccccc2)cc1
- AC50 [7]: 1 µM (inconclusive)

SMILES: CCOC(=O)CSc1nnc(Cc2ccccc2)n1-c1cccc(Cl)c1
- AC50 [4]: 0.0891 µM (inconclusive)
- AC50 [3]: 25.1 µM (inconclusive)
- AC50 [7]: 39.8 µM (inconclusive)

SMILES: Cc1cc(C)c2c(-n3cccc3)[nH]nc2n1
- AC50 [7]: 6.31 µM (inconclusive)

SMILES: O=C(CN(c1cccc(Br)c1)S(=O)(=O)c1ccccc1)N/N=C/c1cc([N+](=O)[O-])ccc1O
- EC50 [10]: 0.364 µM (active)
- EC50 [11]: 0.587 µM (active)
- AC50 [1]: > 380 µM (inactive)
- EC50 [2]: > 380 µM (inactive)

SMILES: O=[N+]([O-])c1ccc(/C=N/Nc2cc(Cl)nc(-c3ccccc3)n2)cc1
- AC50 [7]: 0.00562 µM (inconclusive)

SMILES: C/C(=N\Nc1ccc(Cl)cc1)c1c(O)cc(C)oc1=O
- EC50 [12]: 29.4 µM (active)

SMILES: c1ccc(C[C@@H](c2ccccc2)N2CCCCC2)cc1
- AC50 [5]: 7.94 µM (inconclusive)
- AC50 [3]: 15.8 µM (inconclusive)
- AC50 [6]: 31.6 µM (inconclusive)
